# Assay results: ChEMBL document CHEMBL3751747, “Synthesis and positive inotropic activity evaluation of liguzinediol metabolites” (Bioorg Med Chem Lett, 2016)
# Several values for one entry are separate records, joined by “and”; a condition that tells them apart may be missing. Equal entries are not always repeated.
# Test system: Heart
# Assay: Positive inotropic activity in Sprague-Dawley rat heart assessed as peak rise rate of left ventricular pressure at 10 umol/L (reference value: 1117.66 +/- 665.76 to 1242.03 +/- 495.72 mmHg/s)
# Assay type: functional, Heart left ventricle
# Settings: not given
row,SMILES,Activity [mmHg/s]
1,CC(=O)NC(CSCc1nc(C)c(CO)nc1C)C(=O)O (stereo in doubt; 4),1191.76
2,Cc1nc(C(=O)O)c(C)nc1CO,1286.48
3,Cc1nc(CSCC(N)C(=O)O)c(C)nc1CO (stereo in doubt; 3),1296.62
4,Cc1nc(CO[C@@H]2O[C@H](C(=O)O)[C@@H](O)[C@H](O)[C@H]2O)c(C)nc1CO (stereo in doubt; 2),1123.44

# Test system: Heart
# Assay: Positive inotropic activity in Sprague-Dawley rat heart assessed as peak rise rate of left ventricular pressure at 1 umol/L (reference value: 1117.66 +/- 665.76 to 1242.03 +/- 495.72 mmHg/s)
# Assay type: functional, Heart left ventricle
# Settings: not given
row,SMILES,Activity [mmHg/s]
1,CC(=O)NC(CSCc1nc(C)c(CO)nc1C)C(=O)O (stereo in doubt; 4),1186.33
2,Cc1nc(C(=O)O)c(C)nc1CO,1267.96
3,Cc1nc(CSCC(N)C(=O)O)c(C)nc1CO (stereo in doubt; 3),1303.47
4,Cc1nc(CO[C@@H]2O[C@H](C(=O)O)[C@@H](O)[C@H](O)[C@H]2O)c(C)nc1CO (stereo in doubt; 2),1127.74

# Test system: Heart
# Assay: Positive inotropic activity in Sprague-Dawley rat heart assessed as left ventricular diastolic pressure at 100 umol/L (reference value: -0.04 +/- 0.33 to -0.67 +/- 0.69 mmHg)
# Assay type: functional, Heart left ventricle
# Settings: not given
row,SMILES,Activity [mmHg]
1,CC(=O)NC(CSCc1nc(C)c(CO)nc1C)C(=O)O (stereo in doubt; 4),-0.59
2,Cc1nc(C(=O)O)c(C)nc1CO,-0.38
3,Cc1nc(CSCC(N)C(=O)O)c(C)nc1CO (stereo in doubt; 3),-0.24
4,Cc1nc(CO[C@@H]2O[C@H](C(=O)O)[C@@H](O)[C@H](O)[C@H]2O)c(C)nc1CO (stereo in doubt; 2),-0.97

# Test system: Heart
# Assay: Positive inotropic activity in Sprague-Dawley rat heart assessed as left ventricular diastolic pressure at 10 umol/L (reference value: -0.04 +/- 0.33 to -0.67 +/- 0.69 mmHg)
# Assay type: functional, Heart left ventricle
# Settings: not given
row,SMILES,Activity [mmHg]
1,CC(=O)NC(CSCc1nc(C)c(CO)nc1C)C(=O)O (stereo in doubt; 4),-0.7
2,Cc1nc(C(=O)O)c(C)nc1CO,-0.19
3,Cc1nc(CSCC(N)C(=O)O)c(C)nc1CO (stereo in doubt; 3),-0.09
4,Cc1nc(CO[C@@H]2O[C@H](C(=O)O)[C@@H](O)[C@H](O)[C@H]2O)c(C)nc1CO (stereo in doubt; 2),-0.76

# Test system: Heart
# Assay: Positive inotropic activity in Sprague-Dawley rat heart assessed as left ventricular diastolic pressure at 1 umol/L (reference value: -0.04 +/- 0.33 to -0.67 +/- 0.69 mmHg)
# Assay type: functional, Heart left ventricle
# Settings: not given
row,SMILES,Activity [mmHg]
1,CC(=O)NC(CSCc1nc(C)c(CO)nc1C)C(=O)O (stereo in doubt; 4),-0.15
2,Cc1nc(C(=O)O)c(C)nc1CO,-0.24
3,Cc1nc(CSCC(N)C(=O)O)c(C)nc1CO (stereo in doubt; 3),-0.11
4,Cc1nc(CO[C@@H]2O[C@H](C(=O)O)[C@@H](O)[C@H](O)[C@H]2O)c(C)nc1CO (stereo in doubt; 2),-0.73

# Test system: Heart
# Assay: Positive inotropic activity in Sprague-Dawley rat heart assessed as left ventricular systolic pressure at 10 umol/L (reference value: 20.7 +/- 7.61 to 25.86 +/- 9.41 mmHg)
# Assay type: functional, Heart left ventricle
# Settings: not given
row,SMILES,Activity [mmHg]
1,CC(=O)NC(CSCc1nc(C)c(CO)nc1C)C(=O)O (stereo in doubt; 4),21.69
2,Cc1nc(C(=O)O)c(C)nc1CO,27.85
3,Cc1nc(CSCC(N)C(=O)O)c(C)nc1CO (stereo in doubt; 3),25.68
4,Cc1nc(CO[C@@H]2O[C@H](C(=O)O)[C@@H](O)[C@H](O)[C@H]2O)c(C)nc1CO (stereo in doubt; 2),22.66

# Test system: Heart
# Assay: Positive inotropic activity in Sprague-Dawley rat heart assessed as left ventricular systolic pressure at 100 umol/L (reference value: 20.7 +/- 7.61 to 25.86 +/- 9.41 mmHg)
# Assay type: functional, Heart left ventricle
# Settings: not given
row,SMILES,Activity [mmHg]
1,CC(=O)NC(CSCc1nc(C)c(CO)nc1C)C(=O)O (stereo in doubt; 4),22.4
2,Cc1nc(C(=O)O)c(C)nc1CO,28.51
3,Cc1nc(CSCC(N)C(=O)O)c(C)nc1CO (stereo in doubt; 3),27.42
4,Cc1nc(CO[C@@H]2O[C@H](C(=O)O)[C@@H](O)[C@H](O)[C@H]2O)c(C)nc1CO (stereo in doubt; 2),23.76

# Test system: Heart
# Assay: Positive inotropic activity in Sprague-Dawley rat heart assessed as left ventricular systolic pressure at 1 umol/L (reference value: 20.7 +/- 7.61 to 25.86 +/- 9.41 mmHg)
# Assay type: functional, Heart left ventricle
# Settings: not given
row,SMILES,Activity [mmHg]
1,CC(=O)NC(CSCc1nc(C)c(CO)nc1C)C(=O)O (stereo in doubt; 4),21.22
2,Cc1nc(C(=O)O)c(C)nc1CO,26.98
3,Cc1nc(CSCC(N)C(=O)O)c(C)nc1CO (stereo in doubt; 3),25.02
4,Cc1nc(CO[C@@H]2O[C@H](C(=O)O)[C@@H](O)[C@H](O)[C@H]2O)c(C)nc1CO (stereo in doubt; 2),22.35

# Test system: not listed separately
# Assay: Retention time of the compound by HPLC- MS/MS analysis
# Assay type: physicochemical
# Settings: not given
row,SMILES,Retention_time
1,CC(=O)NC(CSCc1nc(C)c(CO)nc1C)C(=O)O (stereo in doubt; 4),5.705 min
2,Cc1nc(C(=O)O)c(C)nc1CO,3.675 min and 3.637 min
3,Cc1nc(CSCC(N)C(=O)O)c(C)nc1CO (stereo in doubt; 3),3 min
4,Cc1nc(CO[C@@H]2O[C@H](C(=O)O)[C@@H](O)[C@H](O)[C@H]2O)c(C)nc1CO (stereo in doubt; 2),6.687 min

# Test system: Heart
# Assay: Positive inotropic activity in Sprague-Dawley rat heart assessed as peak rise of left ventricular pressure at 100 umol/L (reference value: 1117.66 +/- 665.76 to 1242.03 +/- 495.72 mmHg/s)
# Assay type: functional, Heart left ventricle
# Settings: not given
row,SMILES,Activity [mmHg/s]
1,CC(=O)NC(CSCc1nc(C)c(CO)nc1C)C(=O)O (stereo in doubt; 4),1199.81
2,Cc1nc(C(=O)O)c(C)nc1CO,1299.82
3,Cc1nc(CSCC(N)C(=O)O)c(C)nc1CO (stereo in doubt; 3),1333.56
4,Cc1nc(CO[C@@H]2O[C@H](C(=O)O)[C@@H](O)[C@H](O)[C@H]2O)c(C)nc1CO (stereo in doubt; 2),1127.22

# Test system: Heart
# Assay: Positive inotropic activity in Sprague-Dawley rat heart assessed as peak decrease rate of left ventricular pressure at 1 umol/L (reference value: - 756.58 +/- 265.23 to - 831 +/- 313.09 mmHg/s)
# Assay type: functional, Heart left ventricle
# Settings: not given
row,SMILES,Activity [mmHg/s]
1,CC(=O)NC(CSCc1nc(C)c(CO)nc1C)C(=O)O (stereo in doubt; 4),-799.02
2,Cc1nc(C(=O)O)c(C)nc1CO,-865.84
3,Cc1nc(CSCC(N)C(=O)O)c(C)nc1CO (stereo in doubt; 3),-782.91
4,Cc1nc(CO[C@@H]2O[C@H](C(=O)O)[C@@H](O)[C@H](O)[C@H]2O)c(C)nc1CO (stereo in doubt; 2),-790.99

# Test system: Heart
# Assay: Positive inotropic activity in Sprague-Dawley rat heart assessed as peak decrease rate of left ventricular pressure at 10 umol/L (reference value: - 756.58 +/- 265.23 to - 831 +/- 313.09 mmHg/s)
# Assay type: functional, Heart left ventricle
# Settings: not given
row,SMILES,Activity [mmHg/s]
1,CC(=O)NC(CSCc1nc(C)c(CO)nc1C)C(=O)O (stereo in doubt; 4),-823.04
2,Cc1nc(C(=O)O)c(C)nc1CO,-892.92
3,Cc1nc(CSCC(N)C(=O)O)c(C)nc1CO (stereo in doubt; 3),-784.9
4,Cc1nc(CO[C@@H]2O[C@H](C(=O)O)[C@@H](O)[C@H](O)[C@H]2O)c(C)nc1CO (stereo in doubt; 2),-804.27

# Test system: Heart
# Assay: Positive inotropic activity in Sprague-Dawley rat heart assessed as peak decrease rate of left ventricular pressure at 100 umol/L (reference value: - 756.58 +/- 265.23 to - 831 +/- 313.09 mmHg/s)
# Assay type: functional, Heart left ventricle
# Settings: not given
row,SMILES,Activity [mmHg/s]
1,CC(=O)NC(CSCc1nc(C)c(CO)nc1C)C(=O)O (stereo in doubt; 4),-872.56
2,Cc1nc(C(=O)O)c(C)nc1CO,-904.56
3,Cc1nc(CSCC(N)C(=O)O)c(C)nc1CO (stereo in doubt; 3),-822.39
4,Cc1nc(CO[C@@H]2O[C@H](C(=O)O)[C@@H](O)[C@H](O)[C@H]2O)c(C)nc1CO (stereo in doubt; 2),-733.61

# Test system: Heart
# Assay: Positive inotropic activity in Sprague-Dawley rat heart assessed as heart rate at 1 umol/L (reference value: 218.67 +/- 20.62 to 260 +/- 21.81 bpm)
# Assay type: functional
# Settings: not given
row,SMILES,Activity [bpm]
1,CC(=O)NC(CSCc1nc(C)c(CO)nc1C)C(=O)O (stereo in doubt; 4),228.5
2,Cc1nc(C(=O)O)c(C)nc1CO,259.5
3,Cc1nc(CSCC(N)C(=O)O)c(C)nc1CO (stereo in doubt; 3),231.39
4,Cc1nc(CO[C@@H]2O[C@H](C(=O)O)[C@@H](O)[C@H](O)[C@H]2O)c(C)nc1CO (stereo in doubt; 2),234.28

# Test system: Heart
# Assay: Positive inotropic activity in Sprague-Dawley rat heart assessed as heart rate at 10 umol/L (reference value: 218.67 +/- 20.62 to 260 +/- 21.81 bpm)
# Assay type: functional
# Settings: not given
row,SMILES,Activity [bpm]
1,CC(=O)NC(CSCc1nc(C)c(CO)nc1C)C(=O)O (stereo in doubt; 4),231.5
2,Cc1nc(C(=O)O)c(C)nc1CO,252.83
3,Cc1nc(CSCC(N)C(=O)O)c(C)nc1CO (stereo in doubt; 3),227.72
4,Cc1nc(CO[C@@H]2O[C@H](C(=O)O)[C@@H](O)[C@H](O)[C@H]2O)c(C)nc1CO (stereo in doubt; 2),221.22

# Test system: Heart
# Assay: Positive inotropic activity in Sprague-Dawley rat heart assessed as heart rate at 100 umol/L (reference value: 218.67 +/- 20.62 to 260 +/- 21.81 bpm)
# Assay type: functional
# Settings: not given
row,SMILES,Activity [bpm]
1,CC(=O)NC(CSCc1nc(C)c(CO)nc1C)C(=O)O (stereo in doubt; 4),232.39
2,Cc1nc(C(=O)O)c(C)nc1CO,246.61
3,Cc1nc(CSCC(N)C(=O)O)c(C)nc1CO (stereo in doubt; 3),230.67
4,Cc1nc(CO[C@@H]2O[C@H](C(=O)O)[C@@H](O)[C@H](O)[C@H]2O)c(C)nc1CO (stereo in doubt; 2),220.67

# Test system: Heart
# Assay: Toxicity in Sprague-Dawley rat heart assessed as arrhythmias
# Settings: in vivo
row,SMILES,Activity
1,CC(=O)NC(CSCc1nc(C)c(CO)nc1C)C(=O)O (stereo in doubt; 4),Non-toxic
2,Cc1nc(C(=O)O)c(C)nc1CO,Non-toxic
3,Cc1nc(CSCC(N)C(=O)O)c(C)nc1CO (stereo in doubt; 3),Non-toxic
4,Cc1nc(CO[C@@H]2O[C@H](C(=O)O)[C@@H](O)[C@H](O)[C@H]2O)c(C)nc1CO (stereo in doubt; 2),Non-toxic
